In patent US8841233B2, “Herbicidal compositions comprising 4-amino-3-chloro-5-fluoro-6-(4-chloro-2-fluoro-3-methoxyphenyl) pyridine-2-carboxylic acid or a derivative thereof and 4-hydroxyphenyl-pyruvate dioxygenase (HPPD) inhibitors” (Dow Agrosciences LLC, priority 2012, dated 2014):

Legend:
SCPMA = test: In-water applied weed control, transplanted paddy rice, greenhouse (Example II); type: in vivo
Experimental: (§1) Evaluation of in-Water Applied Herbicidal Mixtures for Weed Control in Transplanted Paddy Rice
(§2) Weed seeds or nutlets of the desired test plant species were planted in puddled soil (mud) prepared by mixing a shredded, non-sterilized mineral soil (50.5 percent silt, 25.5 percent clay, and 24 percent sand, with a pH of about 7.6 and an organic matter content of about 2.9 percent) and water at a 1:1 volumetric ratio. The prepared mud was dispensed in 365 mL aliquots into 16-ounce (oz.) non-perforated plastic pots with a surface area of 86.59 square centimeters (cm^2) leaving a headspace of 3 centimeters (cm) in each pot. Mud was allowed to dry overnight prior to planting or transplanting. Rice seeds were planted in Sun Gro MetroMix® 306 planting mixture, which typically has a pH of 6.0 to 6.8 and an organic matter content of about 30 percent, in plastic plug trays. Seedlings at the second or third leaf stage of growth were transplanted into 840 mL of mud contained in 32-oz. non-perforated plastic pots with a surface area of 86.59 cm^2 4 days prior to herbicide application. The paddy was created by filling the headspace of the pots with 2.5 to 3 cm of water. When required to ensure good germination and healthy plants, a fungicide treatment and/or other chemical or physical treatment was applied. The plants were grown for 4-22 days in a greenhouse with an approximate 14 h photoperiod which was maintained at about 29′C during the day and 26° C. during the night. Nutrients were added as Osmocote® (19:6:12, N:P:K+ minor nutrients) at 2 g per 16-oz. pot and 4 g per 32-oz. pot. Water was added on a regular basis to maintain the paddy flood, and supplemental lighting was provided with overhead metal halide 1000-Watt lamps as necessary. The plants were employed for testing when they reached the first through fourth true leaf stage.
(§3) Treatments consisted of the acid or esters of 4-amino-3-chloro-5-fluoro-6-(4-chloro-2-fluoro-3-methoxy-phenyl)pyridine-2-carboxylic acid (compound A) each formulated as an SC (suspension concentrate) and various herbicidal components alone and in combination. Forms of compound A were applied on an acid equivalent basis.
(§4) Other herbicidal components were applied on an active ingredient basis and included 4-hydroxyphenyl pyruvate dioxygenase (HPPD)-inhibiting herbicides mesotrione formulated as Callisto®, sulcotrione formulated as Mikado®, pyrazolynate formulated as Sunbird® 10% GR, and benzobicyclon formulated as Benzobicyclon 3.5% or technical material.
(§5) Treatment requirements for each compound or herbicidal component were calculated based upon the rates being tested, the concentration of active ingredient or acid equivalent in the formulation, an application volume of 2 mL per component per pot, and an application area of 86.59 cm^2 per pot.
(§6) For formulated compounds, a measured amount was placed in an individual 100 or 200 mL glass vial and was dissolved in a volume of 1.25% (v/v) Agri-Dex® crop oil concentrate to obtain application solutions.
(§7) For technical grade compounds, a weighed amount was placed in an individual 100 to 200 mL glass vial and was dissolved in a volume of acetone to obtain concentrated stock solutions. […] The concentrated stock solutions obtained were diluted with an equivalent volume of an aqueous mixture containing 2.5% (v/v) crop oil concentrate so that the final application solutions contained 1.25% (v/v) crop oil concentrate.
(§8) Applications were made by injecting with a pipetter appropriate amounts of the application solutions, individually and sequentially, into the aqueous layer of the paddy. Control plants were treated in the same manner with the solvent blank. Applications were made so that all treated plant material received the same concentrations of acetone and crop oil concentrate.
(§9) The treated plants and control plants were placed in a greenhouse as described above and water was added as needed to maintain a paddy flood. […]

SCPJU = test: Post-emergence foliar-applied weed control, greenhouse (Example I); type: in vivo, Schoenoplectus juncoides (Roxb.) Palla
Text: (§10) Evaluation of Post-emergence Foliar-Applied Herbicidal Mixtures for Weed Control in Direct Seeded Rice
(§11) Seeds or nutlets of the desired test plant species were planted in a soil matrix prepared by mixing a loam or sandy loam soil (e.g., 28.6 percent silt, 18.8 percent clay, and 52.6 percent sand, with a pH of about 5.8 and an organic matter content of about 1.8 percent) and calcareous grit in an 80 to 20 ratio. The soil matrix was contained in plastic pots with a volume of 1 quart and a surface area of 83.6 square centimeters (cm^2). When required to ensure good germination and healthy plants, a fungicide treatment and/or other chemical or physical treatment was applied. The plants were grown for 8-22 days in a greenhouse with an approximate 14 h photoperiod which was maintained at about 29° C. during the day and 26° C. during the night. Nutrients (Peters Excel® 15-5-15 5-Ca 2-Mg and iron chelate) were applied in the irrigation solution as needed and water was added on a regular basis. Supplemental lighting was provided with overhead metal halide 1000-Watt lamps as necessary. The plants were employed for testing when they reached the first through fourth true leaf stage.
as §3, with “(Compound A),” for “(compound A)”, “concentrate),” for “concentrate)”, “Compound” for “compound”
as §4, with “3.5%.” for “3.5% or technical material.”
(§12) Treatment requirements were calculated based upon the rates being tested, the concentration of active ingredient or acid equivalent in the formulation, and a 12 mL application volume at a rate of 187 L/ha.
(§13) For treatments comprised of formulated compounds, measured amounts of compounds were placed individually in 25 mL glass vials and diluted in a volume of 1.25% (v/v) Agri-Dex® crop oil concentrated to obtain 12× stock solutions. […] Application solutions were prepared by adding an appropriate amount of each stock solution (e.g., 1 mL) and diluted to the appropriate final concentrations with the addition of 10 mL of an aqueous mixture of 1.25% (v/v) crop oil concentrate so that the final spray solutions contained 1.25+/−0.05% (v/v) crop oil concentrate.
(§14) For treatments comprised of formulated and technical compounds, weighed amounts of the technical materials were placed individually in 25 mL glass vials and dissolved in a volume of 97:3 v/v acetone/DMSO to obtain 12× stock solutions, and measured amounts of the formulated compounds were placed individually in 25 mL glass vials and diluted in a volume of 1.5% (v/v) crop oil concentrate or water to obtain 12× stock solutions. […] Application solutions were prepared by adding an appropriate amount of each stock solution (e.g., 1 mL) and diluted to the appropriate final concentrations with the addition of an appropriate amount of an aqueous mixture of 1.5% (v/v) crop oil concentrate so that the final spray solutions contained 1.25% (v/v) crop oil concentrate. As required, additional water and/or 97:3 v/v acetone/DMSO was added to individual application solutions so that the final acetone and DMSO concentrations of the application solutions being compared were 8.1% and 0.25%, respectively.
(§15) All stock solutions and applications solutions were visually inspected for compound compatibility prior to application. Spray solutions were applied to the plant material with an overhead Mandel track sprayer equipped with a 8002E nozzles calibrated to deliver 187 L/ha over an application area of 0.503 m^2 at a spray height of 18 to 20 inches (46 to 50 cm) above average plant canopy height. […]

ECHCG [1] = test: In-water applied weed control, transplanted paddy rice, greenhouse (Example II); type: in vivo, Echinochloa crusgalli (L.) Beauv.; settings: Benzobicyclon (3.5%)
Experimental: as §1, §2, §3, §4, §5, §6, §7, §8, §9

ECHCG [2] = test: Post-emergence foliar-applied weed control, greenhouse (Example I); type: in vivo, Echinochloa crusgalli (L.) Beauv.
Text: as §10, §11
as §3, with “(Compound A),” for “(compound A)”, “concentrate),” for “concentrate)”, “Compound” for “compound”
as §4, with “3.5%.” for “3.5% or technical material.”
as §12, §13, §14, §15

CYPIR = test: as above; type: in vivo, Cyperus iria L.
Text: as §10, §11
as §3, with “(Compound A),” for “(compound A)”, “concentrate),” for “concentrate)”, “Compound” for “compound”
as §4, with “3.5%.” for “3.5% or technical material.”
as §12, §13, §14, §15

CYPRO = test: In-water applied weed control, transplanted paddy rice, greenhouse (Example II); type: in vivo, Cyperus rotundus L.
Experimental: as §1, §2, §3, §4, §5, §6, §7, §8, §9

ECHOR = test: as above; type: in vivo, Echinochloa oryzoides (Ard.) Fritsch
Experimental: as §1, §2, §3, §4, §5, §6, §7, §8, §9

ECHCO = test: Post-emergence foliar-applied weed control, greenhouse (Example I); type: in vivo, Echinochloa colona (L.) Link
Text: as §10, §11
as §3, with “(Compound A),” for “(compound A)”, “concentrate),” for “concentrate)”, “Compound” for “compound”
as §4, with “3.5%.” for “3.5% or technical material.”
as §12, §13, §14, §15

[3] = 100 gae/ha, Benzobicyclon (technical)
[4] = 100 gai/ha, Benzobicyclon (3.5%)
[5] = 200 gai/ha, Benzobicyclon (3.5%)
[6] = 50 gai/ha, Benzobicyclon (technical)

## CS(=O)(=O)c1ccc(C(=O)C2=C(Sc3ccccc3)C3CCC(C3)C2=O)c(Cl)c1 (stereo not shown) [Benzobicyclon, 3-(2-chloro-4-mesylbenzoyl)-2-phenylthiobicyclo[3.2.1]oct-2-en-4-one, reference compound]
SCPMA; [3]
  Visual Weed Control (%) - 21 DAA SCPMA Obs: 80%
SCPMA; [4]
  Visual Weed Control (%) - 21 DAA SCPMA Obs: 70%
SCPMA; [5]
  Visual Weed Control (%) - 21 DAA SCPMA Obs: 93%
SCPJU; 50 gai/ha
  Visual Weed Control (%) - 22 DAA SCPJU Obs: 50%
SCPJU; 100 gai/ha
  Visual Weed Control (%) - 22 DAA SCPJU Obs: 60%
SCPJU; 200 gai/ha
  Visual Weed Control (%) - 22 DAA SCPJU Obs: 70%
ECHCG [1]; 100 gai/ha
  Visual Weed Control (%) - 22 DAA ECHCG Obs: 30%
ECHCG [1]; 200 gai/ha
  Visual Weed Control (%) - 22 DAA ECHCG Obs: 45%
ECHCG [2]; 50 gai/ha
  Visual Weed Control (%) - 22 DAA ECHCG Obs: 0%
ECHCG [2]; 100 gai/ha
  Visual Weed Control (%) - 22 DAA ECHCG Obs: 20%
ECHCG [2]; 200 gai/ha
  Visual Weed Control (%) - 22 DAA ECHCG Obs: 15%
CYPIR; 100 gai/ha
  Visual Weed Control (%) - 22 DAA CYPIR Obs: 0%
CYPIR; 200 gai/ha
  Visual Weed Control (%) - 22 DAA CYPIR Obs: 0%
CYPRO; [6]
  Visual Weed Control (%) - 22 DAA CYPRO Obs: 10%
CYPRO; [4]
  Visual Weed Control (%) - 22 DAA CYPRO Obs: 30%
CYPRO; [5]
  Visual Weed Control (%) - 22 DAA CYPRO Obs: 45%
ECHOR; [6]
  Visual Weed Control (%) - 22 DAA ECHOR Obs: 50%
ECHOR; [3]
  Visual Weed Control (%) - 21 DAA ECHOR Obs: 30%
ECHCO; 50 gai/ha
  Visual Weed Control (%) - 22 DAA ECHCO Obs: 10%
ECHCO; 100 gai/ha
  Visual Weed Control (%) - 22 DAA ECHCO Obs: 10%
ECHCO; 200 gai/ha
  Visual Weed Control (%) - 22 DAA ECHCO Obs: 85%

## CCCCOC(=O)c1nc(-c2ccc(Cl)c(OC)c2F)c(F)c(N)c1Cl [Compound A n-Butyl Ester]
ECHCG [2]; 17.5 gae/ha
  Visual Weed Control (%) - 21 DAA ECHCG Obs: 78%
ECHCG [2]; 35 gae/ha
  Visual Weed Control (%) - 21 DAA ECHCG Obs: 93%
ECHOR; 35 gae/ha
  Visual Weed Control (%) -20 DAA ECHOR Obs: 35%
ECHOR; 70 gae/ha
  Visual Weed Control (%) -20 DAA ECHOR Obs: 40%
